# From patent US20100251415A1, “Composition and Method for Modulating Plant Transformation” (priority 2009, published 2010)
# Tests used:
# N. tabacum [1] = experiment: Stable T-DNA integration: LUC expression test of regenerated plantlets; format: in vivo, Nicotiana tabacum; settings: for Calli regenerated and transplanted, LUC expression test: LUC negative / Calli regenerated and transplanted, LUC expression test: LUC positive: 20 leaves transformed
# Description: The number of transgenic plants, having incorporated a marker gene, regenerated from tobacco calli in various transformation experiments were counted. All the regenerated plants were screened using a luciferase camera. Spraying the transgenic plants with luciferine, the substrate for luciferase enzyme, allowed the identification of transgenic plants expressing the luciferase.
# After a period of about 3 to 4 weeks, the number of regenerated calli were determined. Shoots that developed were excised from calli and transferred to a root inducing solid MS medium containing 0.5 mg/L of naphtaleneacetic acid (NAA), 100 mg/L ticarcillin, 3 mg/L potassium clavulanate and 25 mg/L hygromycin. After a 1 to 2 week period of root induction, the plantlets were transplanted to soil.
# The effects of CeCl3 on the occurrence of stable plant transformation events in N. tabacum plants were evaluated. These experiments identified transformed plants where the DNA of interest had stably integrated into the plant genome.
# The newly appeared plantlets regenerated from the calli of Example 3, showing evidence of root formation, were excised from the calli and transferred to soil.
# Plantlets were sprayed with luciferine, and the total number of luciferase-positive plantlets was scored. This allowed the calculation of the transformation frequency, as the number of plants expressing LUC gene to the number of transformed leaves, shown in FIG. 4.
# The number of stable transformants re-generated from plants grown on CeCl3 supplemented media and control medium, as detailed in Example 3, were compared.
# N. tabacum [2] = experiment: Calli regeneration under hygromycin selection after Agrobacterium-mediated transformation of leaves; format: in vivo, Nicotiana tabacum; settings: for Calli regenerated and transplanted: total: 20 leaves transformed
# Description: Seeds of tobacco cultivar Big Havana were surface-sterilized with a solution containing 1% bleach and 0.05% Tween-80 for about 3 minutes and then rinsed twice with sterile distilled water for about 5 minutes. Surface-sterilized seeds were plated in 100 mm Petri dishes on sterile Whatman® filter paper submersed in 4 ml of liquid MS medium containing varying amounts of CeCl3, LaCl3 and a combination of CeCl3 and LaCl3 and the plants were transferred to a growth chamber for germination. Once germinated, the plants were removed from the growth chamber and grown for a period of one week under conditions of 16-hours light, 22° C. and 8-hours dark, 18° C. The three to five one week old plants were then removed from the 4-ml liquid medium and transferred to single sterile glass 250 ml flasks containing 15 ml of sterile liquid MS media supplemented with varying amounts of CeCl3, LaCl3 and a combination of CeCl3 and LaCl3. Flasks were then installed on shakers at 50-75 rpm. Plants were continuously grown under conditions of 16-hours light, 22° C. and 8-hours dark, 18° C. The growth medium in each flask was replaced weekly with 25 ml of fresh medium. Following a 3-week period, plants were removed from the flasks and 2 to 3 pairs of fully developed fresh leaves about 2-4 cm long were harvested (cut from the plant) for transformation with Agrobacteria.
# Experimental groups of tobacco plants were germinated and grown in a liquid medium culture supplemented with varying amounts of CeCl3, LaCl3 and a combination of CeCl3 and LaCl3. Control plants for the transformation experiments were grown in a standard MS-medium that was not supplemented with CeCl3 or LaCl3.
# Four weeks post-germination, the tobacco plants were removed from the liquid medium culture. The leaves from the plants were removed, and several parallel incisions were made along the leaves. The leaves were then vacuum infiltrated with an Agrobacterium suspension culture carrying the plasmid with LUC (gene coding for luciferase) and hygromycin (gene coding for the resistance to hygromycin) genes.
# The leaves were vacuum-infiltrated twice for about 5 minutes with the Agrobacterium suspension culture using standard procedures known in the art. Following vacuum infiltration, the tobacco leaves were dried for about 5 to 10 minutes on sterile Whatman® filter paper to remove substantially all excess Agrobacterium cells. The leaves were then placed on plates containing MS medium, and each of the plates were placed for in a room for a period of 3 day at a temperature of 22° C. and exposed to a daily regime of 16-hours of light and 8-hours of dark.
# Leaves from each of the experimental groups grown on the different media compositions having varying amounts of CeCl3, LaCl3 and a combination of CeCl3 and LaCl3 and the controls were washed with sterile water to remove the […]. To remove traces of growth medium, leaves were blotted on sterile filter paper and then submersed in a Petri dish laid out with Whatman® filter paper containing re-suspended Agrobacterium cells. Each submersed leaf surface was incised using a sharp surgical blade in parallel along the side veins. The distance between the two parallel incisions was about 5-7 mm. The primary leaf vein and leaf margins were left intact. Once cutting was complete, leaves remained submersed for a period of about 10 minutes. Leaves were then removed from the Petri dish and were blotted dry and placed upside-down on plates of MS medium, and were incubated in a dark room at 22° C. for a period of 3 days. Following incubation, leaves were removed from the plates and rinsed with sterile distilled water, blotted dry and transferred onto solid MS medium containing 0.8 mg/L of indole-3-acetic acid (IAA), and 2 mg/L kinetin for calli induction and regeneration, a combination of 100 mg/L ticarcillin and 3 mg/L potassium clavulanate to control Agrobacterium growth, and 25 mg/L hygromycin for selection for transformed cells. […]
# [3] = 0.1 μM CeCl3, liquid MS, Table 2 experiment
# [4] = 0.1 μM CeCl3, liquid MS, second independent experiment (Table 3)
# [5] = 0.5 μM CeCl3, liquid MS, Table 2 experiment
# [6] = 1.0 μM CeCl3, liquid MS, second independent experiment (Table 3)
smiles,measurement,setting,value
"[Ce+3].[Cl-].[Cl-].[Cl-] [CeCl3, cerium (III) chloride]",difference in numbers of stable transformants versus control media,"N. tabacum [1]; 0.1 μM CeCl3, FIG. 4",2.0 fold
same,"Calli regenerated and transplanted, LUC expression test: LUC negative",N. tabacum [1]; [3],13
same,"Calli regenerated and transplanted, LUC expression test: LUC positive",N. tabacum [1]; [3],23
same,"Calli regenerated and transplanted, LUC expression test: LUC negative",N. tabacum [1]; [4],13
same,"Calli regenerated and transplanted, LUC expression test: LUC positive",N. tabacum [1]; [4],34
same,Integration frequency,N. tabacum [1]; [3],1.15 LUC positive plants/leaf trans
same,Integration frequency,N. tabacum [1]; [4],1.7 LUC positive plants/leaf trans
same,"Calli regenerated and transplanted, LUC expression test: LUC negative",N. tabacum [1]; [5],18
same,"Calli regenerated and transplanted, LUC expression test: LUC positive",N. tabacum [1]; [5],38
same,Integration frequency,N. tabacum [1]; [5],1.9 LUC positive plants/leaf trans
same,difference in numbers of stable transformants versus control media,"N. tabacum [1]; 1.0 μM CeCl3, FIG. 4",3.4 fold
same,"Calli regenerated and transplanted, LUC expression test: LUC negative",N. tabacum [1]; [6],18
same,"Calli regenerated and transplanted, LUC expression test: LUC positive",N. tabacum [1]; [6],57
same,Integration frequency,N. tabacum [1]; [6],2.85 LUC positive plants/leaf trans
same,increase in the number of calli regenerated compared to the control medium,"N. tabacum [2]; 0.1 μM CeCl3, Table 2 experiment",1.8 fold
same,Calli regenerated and transplanted: total,N. tabacum [2]; [3],35
same,Calli regenerated and transplanted: total,N. tabacum [2]; [4],48
same,increase in the number of calli regenerated compared to the control medium,"N. tabacum [2]; 0.1 μM CeCl3, second independent experiment (Table 3, FIG. 4)",2.2 fold
same,increase in the number of calli regenerated compared to the control medium,"N. tabacum [2]; 0.5 μM CeCl3, Table 2 experiment",2.9 fold
same,Calli regenerated and transplanted: total,N. tabacum [2]; [5],56
same,Calli regenerated and transplanted: total,N. tabacum [2]; [6],73
same,increase in the number of calli regenerated compared to the control medium,"N. tabacum [2]; 1.0 μM CeCl3, second independent experiment (Table 3, FIG. 4)",3.3 fold
